Laboratory results taken from US20240131028A1, “CHEMOVACCINATION AGAINST PLASMODIUM INFECTION WITH SELECTIVE PLASMEPSIN X INHIBITORS” (Merck Sharp & Dohme LLC, priority 2021, published 2024).

tested on: ring stage parasites (Pf); assay: Parasite lactate dehydrogenase (LDH) growth assay (Parasite Assay, PfLDH Assay); format: cell-based, P. falciparum; settings: Table 3; 72 hours growth, LDH readout; read-out: EC50
Method: The parasite stock was maintained at 4% haematocrit in RPMI-Hepes media buffered with sodium bicarbonate and supplemented with 5% heat inactivated human serum and 0.5% albumax. […] On the day of assay set up, a blood smear of the parasite culture was Giemsa stained and counted. The parasitemia was adjusted to 0.7% rings and the haematocrit was diluted to 2% in RPMI-Hepes media buffered with sodium bicarbonate and supplemented with 5% heat inactivated human serum and 0.5% albumax. 30 μl of diluted parasites are then added into 10 μl of media+compound in pre-prepared Greiner TC assay plates. Parasite assay plates were placed in gassed humidified boxes in single layer and allowed to incubate at 37° C. for 72 hours. After 72 hours growth, assay plates were sealed with parafilm and frozen flat, in single file at −80° C. overnight. On the following day, assay plates were allowed to thaw at room temperature for 4 hours to which an LDH assay was performed to measure parasite growth.

In order of rising EC50:
1. CCC1(CC)CC(=O)N(C(c2cccnc2)[C@H]2C(C)[C@@H]2C(=O)N[C@H]2C[C@H](C(F)(F)F)Oc3ccccc32)C(=N)N1 (single isomer, unassigned) [Example 55A]  0.8 nM
2. CC1[C@H](C(c2cccnc2)N2C(=N)NC(C)(C)CC2=O)[C@H]1C(=O)N[C@H]1C[C@H](C(F)(F)F)Oc2ccccc21 (single isomer, unassigned) [Example 54A]  1 nM
3. CCC1(C)CC(NC(=O)[C@H]2C[C@@H]2[C@@H](CCOC)N2C(=N)NC(C)(C)CC2=O)c2ccccc2O1 (single isomer, unassigned) [Example 75C]  7 nM
4. CCC1(C)CC(NC(=O)[C@H]2C[C@@H]2[C@@H](CCOC)N2C(=N)NC(C)(C)CC2=O)c2ccccc2O1 (single isomer, unassigned) [Example 75D]  7 nM
5. CCC1(C)CC(NC(=O)[C@H]2C[C@@H]2[C@@H](CCOC)N2C(=N)NC(C)(C)CC2=O)c2ccccc2O1 (single isomer, unassigned) [Example 75B]  7.5 nM
6. CCC1(CC)CC(=O)N(C[C@H]2C(C)[C@@H]2C(=O)N[C@@H]2c3ccccc3OC(C)(C)[C@H]2O)C(=N)N1 (single isomer, unassigned) [Example 30B]  7.7 nM
7. CCC1(CC)CC(=O)N(CC2C(C(=O)N[C@H]3C[C@@H](C(F)(F)F)Oc4ccccc43)C2(F)F)C(=N)N1 (single isomer, unassigned) [Example 17B]  20 nM
8. CCC1(CC)CC(=O)N(C[C@H]2C(C)[C@@H]2C(=O)N[C@H]2CC(C)(C)Oc3ccccc32)C(=N)N1 (single isomer, unassigned) [Example 25B]  25 nM
9. CCC1(CC)CC(=O)N(C[C@H]2C(C)[C@@H]2C(=O)N[C@@H]2c3ccccc3OC(C)(C)[C@H]2O)C(=N)N1 (single isomer, unassigned) [Example 30A]  45 nM
10. CCC1(CC)CC(=O)N(CC2C(C(=O)N[C@H]3C[C@@H](C(F)(F)F)Oc4ccccc43)C2(F)F)C(=N)N1 (single isomer, unassigned) [Example 17A]  47 nM
11. CCC1(CC)CC(=O)N(C[C@H]2C(C)[C@@H]2C(=O)N[C@H]2CC(C)(C)Oc3ccccc32)C(=N)N1 (single isomer, unassigned) [Example 25A]  84 nM
12. CCC1(CC)CC(=O)N(C[C@H]2C(C)[C@@H]2C(=O)N[C@@H]2c3ccccc3OCC2(C)O)C(=N)N1 (single isomer, unassigned) [Example 35A]  85 nM
13. CCC1(CC)CC(=O)N(C[C@H]2C(C)[C@@H]2C(=O)N[C@H]2c3ccccc3CC2(C)O)C(=N)N1 (single isomer, unassigned) [Example 29C]  113 nM
14. CC1[C@H](C(c2cccnc2)N2C(=N)NC(C)(C)CC2=O)[C@H]1C(=O)N[C@H]1C[C@H](C(F)(F)F)Oc2ccccc21 (single isomer, unassigned) [Example 54B]  130 nM
15. CCC1(CC)CC(=O)N(C(c2cccnc2)[C@H]2C(C)[C@@H]2C(=O)N[C@H]2C[C@H](C(F)(F)F)Oc3ccccc32)C(=N)N1 (single isomer, unassigned) [Example 55B]  180 nM
16. CCC1(CC)CC(=O)N(C[C@H]2C(C)[C@@H]2C(=O)N[C@H]2c3ccccc3CC2(C)O)C(=N)N1 (single isomer, unassigned) [Example 29A]  203 nM
17. CCC1(CC)CC(=O)N(C[C@H]2C(C)[C@@H]2C(=O)N[C@@H]2c3ccccc3OCC2(C)O)C(=N)N1 (single isomer, unassigned) [Example 35B]  220 nM
18. CC(C)C1(C)CC(NC(=O)[C@H]2C[C@@H]2CN2C(=N)NC(C)(C)CC2=O)c2ccccc2O1 (single isomer, unassigned) [Example 79B]  275 nM
19. CCC1(CC)CC(=O)N(C[C@H]2C(C)[C@@H]2C(=O)N[C@H]2c3ccccc3CC2(C)O)C(=N)N1 (single isomer, unassigned) [Example 29B]  351 nM
